Results: patent US10544154B2, “Opioid receptor antagonist prodrugs” (Nirsum Laboratories, Inc., priority 2017, dated 2020)

Legend:
[1] = Plasma stability, rat plasma (HPLC-MS); format: in vitro ADME; settings: 10 μM, 37° C.
Experimental: Plasma stability determination of the test compounds in rat, dog, cynomolgus monkey and human plasma is performed using HPLC-MS. For rat, incubations are carried out in 96-well polypropylene plates in 5 aliquots of 70 μL each (one for each time point). […] Five time points are analyzed (0, 15, 120, 480 and 1440 min). For dog, monkey and human, test compounds (2 μM, final solvent concentration 1%) were also incubated at 37° C. and analyzed at five time points (0, 10, 30, 60 and 120 min). All incubations are performed in duplicates. The samples are analyzed by HPLC-MS. The percentage of parent compound remaining after incubation in plasma is determined.

[2] = Polymorph screening of solid state drug substances; format: physicochemical; settings: for Dry method and appearance: after stirring at 50 °C for 72 hours; for XRPD results (Dried): dried solid
[3] = Clinical observations for dogs in pharmacokinetic studies; format: in vivo, Beagle dogs; settings: dog D1503, 96 mg/kg, Day 1
Experimental: Weight monitoring was done every week.
The dose formulation (concentration—400 mg base equivalents/ml in sesame oil+1% benzyl alcohol, unless otherwise specified) was administered via deep intramuscularly (unless otherwise specified). The injection vehicle was also dosed via deep intramuscular route (unless otherwise specified) on contralateral site of each animal at study initiation. The animals were sedated with Propofol at 6 mg/kg via IV administration. Following sedation hair was carefully removed from around the injection site and the area gently cleaned. Care will be taken to avoid irritating skin during shaving and cleaning the injection site. Then dogs will be dosed with deep IM administration. At least 2.5 cm depth from the surface into the central aspect of the quadriceps or biceps femoris muscle, by angling the needle toward the femur. If the needle hits the femur, simply draws back slightly and then inject. The dose volume will be determined by the animals' body weight collected on the morning of dosing day. For repeated administration, the injection sites may be rotated to minimize tissue injury.

CCCCCCCCCCOC(=O)Oc1ccc2c3c1O[C@H]1C(=O)CC[C@@]4(O)C(C2)N(CC2CC2)CC[C@]314 [Compound 10, (4aS,7aR,12bS)-3-(cyclopropylmethyl)-4a-hydroxy-7-oxo-2,3,4,4a,5,6,7,7a-octahydro-1H-4,12-methanobenzofuro[3,2-e]isoquinolin-9-yl decyl carbonate]
% remaining at time point in minutes, 0 min [1]: 100%
% remaining at time point in minutes, 15 min [1]: 0%
% remaining at time point in minutes, 120 min [1]: 0%
% remaining at time point in minutes, 480 min [1]: 0%
% remaining at time point in minutes, 1440 min [1]: 0%
Dry method and appearance ([2]; Acetone): Evaporation/White wax
XRPD results (Dried) ([2]; Acetone): Pattern A
Dry method and appearance ([2]; EtOAc): Evaporation/White wax
XRPD results (Dried) ([2]; EtOAc): Pattern A
Dry method and appearance ([2]; Heptane): Centrifugation/White wax
XRPD results (Dried) ([2]; Heptane): Pattern A
Dry method and appearance ([2]; Isopropanol): Evaporation/White wax
XRPD results (Dried) ([2]; Isopropanol): Pattern A
Dry method and appearance ([2]; MTBE): Evaporation/White wax
XRPD results (Dried) ([2]; MTBE): Pattern A

C=C1CC[C@@]2(O)C3Cc4ccc(OC(=O)CCCCCCCCCCCCCCCCCCC)c5c4[C@@]2(CCN3CC2CC2)[C@H]1O5 [Compound 16, (4aS,7aS,12bS)-3-(cyclopropylmethyl)-4a-hydroxy-7-methylene-2,3,4,4a,5,6,7,7a-octahydro-1H-4,12-methanobenzofuro[3,2-e]isoquinolin-9-yl icosanoate]
Dry method and appearance ([2]; Acetone): Evaporation/white powder
XRPD results (Dried) ([2]; Acetone): Pattern A
Dry method and appearance ([2]; EtOAc): Evaporation/white powder
XRPD results (Dried) ([2]; EtOAc): Pattern A
Dry method and appearance ([2]; Heptane): Centrifugation/white powder
XRPD results (Dried) ([2]; Heptane): Pattern A
Dry method and appearance ([2]; Isopropanol): Centrifugation/white powder
XRPD results (Dried) ([2]; Isopropanol): Pattern A
Dry method and appearance ([2]; MTBE): Evaporation/white powder
XRPD results (Dried) ([2]; MTBE): Pattern A

C=C1CC[C@@]2(O)C3Cc4ccc(OC(=O)OCCCCCCCC)c5c4[C@@]2(CCN3CC2CC2)[C@H]1O5 [Compound 17, (4aS,7aS,12bS)-3-(cyclopropylmethyl)-4a-hydroxy-7-methylene-2,3,4,4a,5,6,7,7a-octahydro-1H-4,12-methanobenzofuro[3,2-e]isoquinolin-9-yl octyl carbonate]
% remaining at time point in minutes, 0 min [1]: 100%
% remaining at time point in minutes, 15 min [1]: 0%
% remaining at time point in minutes, 120 min [1]: 0%
% remaining at time point in minutes, 480 min [1]: 0%
% remaining at time point in minutes, 1440 min [1]: 0%

C=C1CC[C@@]2(O)C3Cc4ccc(OC(=O)OCCCCCCCCCC)c5c4[C@@]2(CCN3CC2CC2)[C@H]1O5 [Compound 18, (4aS,7aS,12bS)-3-(cyclopropylmethyl)-4a-hydroxy-7-methylene-2,3,4,4a,5,6,7,7a-octahydro-1H-4,12-methanobenzofuro[3,2-e]isoquinolin-9-yl decyl carbonate]
% remaining at time point in minutes, 0 min [1]: 100%
% remaining at time point in minutes, 15 min [1]: 0.6%
% remaining at time point in minutes, 120 min [1]: 0.3%
% remaining at time point in minutes, 480 min [1]: 0.1%
% remaining at time point in minutes, 1440 min [1]: 0%

CCCCCCCCOC(=O)Oc1ccc2c3c1O[C@H]1C(=O)CC[C@@]4(O)C(C2)N(CC2CC2)CC[C@]314 [Compound 23, (4aS,7aR,12bS)-3-(cyclopropylmethyl)-4a-hydroxy-7-oxo-2,3,4,4a,5,6,7,7a-octahydro-1H-4,12-methanobenzofuro[3,2-e]isoquinolin-9-yl octyl carbonate]
% remaining at time point in minutes, 0 min [1]: 100%
% remaining at time point in minutes, 15 min [1]: 0%
% remaining at time point in minutes, 120 min [1]: 0%
% remaining at time point in minutes, 480 min [1]: 0%
% remaining at time point in minutes, 1440 min [1]: 0%

C=C1CC[C@@]2(O)C3Cc4ccc(OCOC(=O)OCCCCCCCCCCCCCC)c5c4[C@@]2(CCN3CC2CC2)[C@H]1O5 [Compound 25, (((4aS,7aS,12bS)-3-(cyclopropylmethyl)-4a-hydroxy-7-methylene-2,3,4,4a,5,6,7,7a-octahydro-1H-4,12-methanobenzofuro[3,2-e]isoquinolin-9-yl)oxy)methyl tetradecyl carbonate]
% remaining at time point in minutes, 0 min [1]: 100%

C=C1CC[C@@]2(O)C3Cc4ccc(OC(=O)OCCCCCCCCCCCCC)c5c4[C@@]2(CCN3CC2CC2)[C@H]1O5 [Compound 30, (4aS,7aS,12bS)-3-(cyclopropylmethyl)-4a-hydroxy-7-methylene-2,3,4,4a,5,6,7,7a-octahydro-1H-4,12-methanobenzofuro[3,2-e]isoquinolin-9-yl tridecyl carbonate]
% remaining at time point in minutes, 0 min [1]: 100%

C=C1CC[C@@]2(O)C3Cc4ccc(OC(=O)CCCCCCC/C=C\CCCCCCCC)c5c4[C@@]2(CCN3CC2CC2)[C@H]1O5 [Compound 36, (4aS,7aS,12bS)-3-(cyclopropylmethyl)-4a-hydroxy-7-methylene-2,3,4,4a,5,6,7,7a-octahydro-1H-4,12-methanobenzofuro[3,2-e]isoquinolin-9-yl oleate]
% remaining at time point in minutes, 0 min [1]: 100%

C=C1CC[C@@]2(O)C3Cc4ccc(OC(=O)NC(C)(C)C)c5c4[C@@]2(CCN3CC2CC2)[C@H]1O5 [Compound 40, (4aS,7aS,12bS)-3-(cyclopropylmethyl)-4a-hydroxy-7-methylene-2,3,4,4a,5,6,7,7a-octahydro-1H-4,12-methanobenzofuro[3,2-e]isoquinolin-9-yl tert-butylcarbamate]
Dry method and appearance ([2]; Acetone): Evaporation/white powder
XRPD results (Dried) ([2]; Acetone): Amorphous
Dry method and appearance ([2]; EtOAc): Evaporation/white powder
XRPD results (Dried) ([2]; EtOAc): Pattern A
Dry method and appearance ([2]; Heptane): Centrifugation/white powder
XRPD results (Dried) ([2]; Heptane): Pattern A
Dry method and appearance ([2]; Isopropanol): Evaporation/oil
XRPD results (Dried) ([2]; Isopropanol): Amorphous
Dry method and appearance ([2]; MTBE): Evaporation/white powder
XRPD results (Dried) ([2]; MTBE): Amorphous

C=C1CC[C@@]2(O)C3Cc4ccc(OCOC(=O)CCCCCCCCCCCCC)c5c4[C@@]2(CCN3CC2CC2)[C@H]1O5 [Compound 45, (((4aS,7aS,12bS)-3-(cyclopropylmethyl)-4a-hydroxy-7-methylene-2,3,4,4a,5,6,7,7a-octahydro-1H-4,12-methanobenzofuro[3,2-e]isoquinolin-9-yl)oxy)methyl tetradecanoate]
Clinical observations (cell spans L-vehicle and R-TA) [3]: Liquid feces about 20 mL

CCCCCCCCCCCCCCCCCCCC(=O)Oc1ccc2c3c1O[C@H]1C(=O)CC[C@@]4(O)C(C2)N(CC2CC2)CC[C@]314 [Compound 50, (4aS,7aR,12bS)-3-(cyclopropylmethyl)-4a-hydroxy-7-oxo-2,3,4,4a,5,6,7,7a-octahydro-1H-4,12-methanobenzofuro[3,2-e]isoquinolin-9-yl icosanoate]
% remaining at time point in minutes, 0 min [1]: 100%

CCCCCCCCCCCCCCCCCCCCCC(=O)Oc1ccc2c3c1O[C@H]1C(=O)CC[C@@]4(O)C(C2)N(CC2CC2)CC[C@]314 [Compound 51, (4aS,7aR,12bS)-3-(cyclopropylmethyl)-4a-hydroxy-7-oxo-2,3,4,4a,5,6,7,7a-octahydro-1H-4,12-methanobenzofuro[3,2-e]isoquinolin-9-yl docosanoate]
% remaining at time point in minutes, 0 min [1]: 100%

CCCCCCCCCCCCCCCCCC(=O)Oc1ccc2c3c1O[C@H]1C(=O)CC[C@@]4(O)C(C2)N(CC2CC2)CC[C@]314 [Compound 54, (4aS,7aR,12bS)-3-(cyclopropylmethyl)-4a-hydroxy-7-oxo-2,3,4,4a,5,6,7,7a-octahydro-1H-4,12-methanobenzofuro[3,2-e]isoquinolin-9-yl stearate]
% remaining at time point in minutes, 0 min [1]: 100%

CCCCCCCCCCCCCC(=O)Oc1ccc2c3c1O[C@H]1C(=O)CC[C@@]4(O)C(C2)N(CC2CC2)CC[C@]314 [Compound 57, (4aS,7aR,12bS)-3-(cyclopropylmethyl)-4a-hydroxy-7-oxo-2,3,4,4a,5,6,7,7a-octahydro-1H-4,12-methanobenzofuro[3,2-e]isoquinolin-9-yl tetradecanoate]
% remaining at time point in minutes, 0 min [1]: 100%
% remaining at time point in minutes, 120 min [1]: 3.2%
% remaining at time point in minutes, 480 min [1]: 1.2%
% remaining at time point in minutes, 1440 min [1]: 0%

CCCCCCCCCCCCCCC(=O)Oc1ccc2c3c1O[C@H]1C(=O)CC[C@@]4(O)C(C2)N(CC2CC2)CC[C@]314 [Compound 58, (4aS,7aR,12bS)-3-(cyclopropylmethyl)-4a-hydroxy-7-oxo-2,3,4,4a,5,6,7,7a-octahydro-1H-4,12-methanobenzofuro[3,2-e]isoquinolin-9-yl pentadecanoate]
% remaining at time point in minutes, 0 min [1]: 100%
% remaining at time point in minutes, 15 min [1]: 37%
% remaining at time point in minutes, 120 min [1]: 20%
% remaining at time point in minutes, 480 min [1]: 2.9%
% remaining at time point in minutes, 1440 min [1]: 1.8%

Enalapril maleate salt [reference compound]
% remaining at time point in minutes, 0 min [1]: 100%
% remaining at time point in minutes, 15 min [1]: 44%
% remaining at time point in minutes, 120 min [1]: 2.9%
% remaining at time point in minutes, 480 min [1]: 8.2%
% remaining at time point in minutes, 1440 min [1]: 4.8%
